The text below walks through data of patent US20100063049A1, “2-CARBOCYCLOAMINO-4-IMIDAZOLYLPYRIMIDINES AS AGENTS FOR THE INHBITION OF CELL PROLIFERATION” (priority 2006, published 2010).

Each structure is given as a SMILES string.

The experiment has as its target T1, CDK2/Cyclin E (Homo sapiens, UniProt P24941).
T1 construct: The open reading frames of CDK2 and Cyclin E were isolated by reverse transcriptase-PCR; made in house; host or cells: Spodoptera frugiperda SF21 insect cells (baculovirus co-infection); GST-Rb substrate made in E. coli BL21(DE3) pLysS
As to the kind of experiment: in vitro kinase assay (Scintillation Proximity Assay), incorporation of [γ-33-P]-ATP into GST-Rb. The experiment is classed as biochemical. The following applies: CDK2/Cyclin E partially-purified enzyme, GST-Rb substrate, 0.2 μM ATP, room temperature 60 mins; read-out: CDK2 inhibitory activity IC50. The procedure:
The compounds were tested in an in vitro kinase assay in 96 well format using Scintillation Proximity Assay (SPA—obtained from Amersham) for measuring incorporation of [γ-33-P]-Adenosine Triphosphate into a test substrate (GST-Retinoblastoma protein; GST-Rb). In each well was placed the compound to be tested (diluted in DMSO and water to correct concentrations) and in control wells either roscovitine as an inhibitor control or DMSO as a positive control. […]
The plates were sealed with Topseal-S plate sealers, left for two hrs then spun at 2500 rpm, 1124×g., for 5 mins. The plates were read on a Topcount for 30 seconds per well. […]
E. coli paste was resuspended in 10 ml/g of NETN buffer (50 mM Tris pH 7.5, 120 mM NaCl, 1 mM EDTA, 0.5% v/v NP-40, 1 mM PMSF, 1 ug/ml leupeptin, 1 ug/ml aprotinin and 1 ug/ml pepstatin) and sonicated for 2×45 seconds per 100 ml homogenate. […] The final product was analysed by Sodium Dodeca Sulfate (SDS) PAGE (Polyacrylamide gel) using 8-16% Tris-Glycine gels (Novex, San Diego, USA).
The open reading frames of CDK2 and Cyclin E were isolated by reverse transcriptase-PCR using HeLa cell and activated T cell mRNA as a template and cloned into the insect expression vector pVL1393 (obtained from Invitrogen 1995 catalogue number: V1392-20). […]
(In a scintillation proximity assay essentially only radioactivity close to the scintillant gives light.)

Usually IC50 stands for the concentration that gives 50% inhibition. Take `Cc1ncc(-c2ccnc(N[C@H]3CC[C@H](N(C)C)CC3)n2)n1C(C)C` [Example 4, trans-N′,N′-Dimethyl-N-[4-(2-methyl-3-propan-2-yl-imidazol-4-yl)pyrimidin-2-yl]cyclohexane-1,4-diamine]: the IC50 amounted to 159 nM.
